Converted amounts (≈) assume the structure as drawn. Like-named read-outs stand apart in the source and are kept apart here.
Key:
Type in all cases: in vivo
[1] = system: common mosquito (Culex pipiens pallens); test: Test Example 1: common mosquito larvae in diluted emulsifiable concentrate, mortality and emergence inhibition; conditions: 3.5 ppm; for mortality at 3.5 ppm / pest or weed control at 3.5 ppm: Culex pipiens; for mortality at 3.5 ppm: 24 h, read-out: Mortality; for pest or weed control at 3.5 ppm: read-out: Inhibitory ratio of emergence
Protocol: The emulsifiable concentrates of the following present compounds obtained according to Formulation example 2 were each diluted with water so as to obtain respective aqueous solutions containing 3.5 ppm of said compounds, respectively. One hundred ml of thus diluted aqueous solutions were poured into respective polyethylene cups of 180 ml volume, and 20 of the last instar larvae of common mosquito (Culex pipiens pallens) were liberated thereto. After one day, the dead or alive of the larvae were examined.
Thereafter, the feed was added to respective cups and the number of emerged pupae of the respective cups was counted when all the pupae of no treatment group had emerged to calculate the inhibitory ratios of the emergence.
The mortality and the inhibitory ratio of the emergence are shown according to the following three criteria: • mortality: A; 90% or more, • B; less than 90% to 10%, • C; less than 10%. • inhibitory: A; 90% or more, ratio of • emergence B; less than 90% to 80% • C; less than 80%.

[2] = system: tobacco cutworms (Spodoptera litura); test: Test Example 2: tobacco cutworm larvae on treated artificial feed; conditions: 150 ppm solution, 2 ml in 13 g artificial feed, 4th instar larvae, six days after; for mortality at 150 ppm: Spodoptera litura, 144 h, read-out: Mortality (%)
Excerpt: The emulsifiable concentrates of the following present compounds obtained according to Formulation example 2 were each diluted with water to obtain respective 667 times dilution aqueous solutions (corresponding to 150 ppm) containing said compounds, respectively. Two ml of thus diluted solutions were impregnated into the artificial feeds (13 g) for tobacco cutworms (Spodoptera litura) and thus prepared feeds were placed in polyethylene cups of 11 cm in diameter, respectively. Ten of the 4th instar larvae were liberated thereon.
Six days after, the dead and alive of the larvae were examined to calculate the mortality (two replications).

[3] = system: resistant strain of green rice leafhopper (Nephotetix cincticeps); test: Test Example 3: rice seedling dip test, resistant green rice leafhopper; conditions: Nephotettix cincticeps, 24 h, rice seedlings dipped 1 minute; adults of resistant strain; after one day; read-out: LC50 value (ppm)
Protocol: The emulsifiable concentrates of the following present compounds and control compounds obtained according to Formulation example 2 were each diluted with water to a prescribed concentration, and rice seedlings (about 12 cm in length) were dipped for 1 minute in the resulting aqueous dilute solutions. After air-drying, the seedlings were placed in test tube, and 10 adults of a resistant strain of green rice leafhopper (Nephotetix cincticeps) were liberated in the tube. After one day, the dead and alive of the adults were examined to obtain LC50 (50% lethal concentration)(two replications).

[4] = system: brown rice planthoppers (Nila^parvata luqens); test: Test Example 7: spray on potted rice plants, brown rice planthopper, residual effect; conditions: 20 h, 100 ppm spray, 20 ml/2 pots, twenty hours after liberation
Protocol: The emulsifiable concentrates of the following compounds and control compounds obtained according to Formulation example 2 were each diluted with water one thousand times (corresponding to 100 ppm) and each of thus prepared solutions was sprayed at the rate of 20 ml/2 pots to the rice plant seedlings planted in Wagner pots having a surface area of one ten thousandth are. After air-drying, the treated plants were covered with the iron wire cages, and about 15 adults of brown rice planthoppers (Nila^parvata luqens) were liberated thereto. Further, about 15 adults thereof were also liberated thereto 4 days after the application to examine the residual effects. Twenty hours after each liberation, the dead and alive adults were examined to calculate the mortality.

[5] = system: houseflies (Musca domestica) of WHO strains; test: Test Example 6: housefly filter paper and sucrose bait test; conditions: 0.7 ml on filter paper with sucrose bait, adult females, after 48 hours, read-out: LC50 value (ppm)
Protocol: On the bottom of a polyethylene cup of 5.5 cm- in diameter was placed a piece of filter paper of the same size as the bottom, and 0.7 ml of a test solution, prepared by diluting the emulsifiable concentrates of the following present compounds and control compounds prepared according to Formulation example 2 to a prescribed concentration with water, was added dropwise to the filter paper. Thirty milligrams of sucrose were uniformly placed on the filter paper as bait. Thereafter, 10 adult female houseflies (Musca domestica) of WHO strains were liberated in the cup, which was then covered with a lid. After 48 hours, the dead and alive were examined to obtain LC50 value (50% lethal concentration) (two replications).

[6] = system: carmine spider mite (Tetranychus cinnabarinus); test: Test Example 8: carmine spider mite on potted kidney bean, degree of damage; design: key: -: No damage is observed.; +: Slight damage is observed.; ++: The same damage as in the untreated plot is observed; conditions: 500 ppm spray 10 ml/pot plus 2 ml soil treatment; after 8 days
Protocol: The female adults of carmine spider mite (Tetranychus cinnabarinus) were put at a rate of 10 adults/leaf on the leaves of potted kidney bean (at the primordial leaf stage) which had elapsed 7 days after sowing, and placed in a constant-temperature room kept at 25°C. After 6 days, the 200-fold aqueous dilute solutions (corresponding to 500 ppm), prepared from the emulsifiable concentrates of the following present compounds and control compounds prepared according to Formulation example 2, were each sprayed at a rate of 10 ml/pot on a turn table. At the same time, the soil in the pot was treated with 2 ml of each aqueous solution. After 8 days, the degree of damage of the plant by the mite was examined.
Criteria of the effect: • - : No damage is observed. • + : Slight damage is observed. • ++: The same damage as in the untreated plot is observed.

[7] = 20 last instar larvae, after one day
[8] = counted when all pupae of no treatment group had emerged
[9] = residual effect, read-out: Mortality (%) liberated 4 days after application
[10] = read-out: Mortality (%) liberated just after air-drying

Compound | mortality at 3.5 ppm [1, 7] | pest or weed control at 3.5 ppm [1, 8] | mortality at 150 ppm [2] | LC50 [3] | further results
C=CC(C)(CCCc1ccc(F)c(Oc2ccccc2)c1)c1ccc(OCC)cc1 (stereo not drawn) [(2)] | > 90% | > 90% | 100% | 80 µg/mL (≈ 198 µM) | mortality at 100 ppm [4, 9]: 100%; mortality at 100 ppm [4, 10]: 100%
C#CC(C)(CCCc1ccc(F)c(Oc2ccccc2)c1)c1ccc(OC)cc1 (stereo not drawn) [(5)] | > 90% | > 90% | 100% | 56 µg/mL (≈ 144 µM) | LC50 [5]: 13 µg/mL (≈ 33.5 µM)
C#CC(C)(CCCc1ccc(F)c(Oc2ccccc2)c1)c1ccc(OCC=C)cc1 (stereo not drawn) [(8)] | > 90% | > 90% | 100% | 54 µg/mL (≈ 130 µM) | 
C#CC(C)(CCCc1ccc(F)c(Oc2ccccc2)c1)c1ccc(Cl)cc1 (stereo not drawn) [(10)] | > 90% | > 90% | 100% | 32 µg/mL (≈ 81.4 µM) | 
C#CC(C)(CCCc1ccc(F)c(Oc2ccccc2)c1)c1ccc2c(c1)OCO2 (stereo not drawn) [(12)] | > 90% | > 90% | 100% | 63 µg/mL (≈ 157 µM) | LC50 [5]: 13 µg/mL (≈ 32.3 µM)
C#CC(C)(CCCc1ccc(F)c(Oc2ccccc2)c1)c1ccc(C(F)(F)F)cc1 (stereo not drawn) [(13)] | > 90% | > 90% | 100% | 10 µg/mL (≈ 23.4 µM) | Degree of damage [6]: -
C#CC(C)(CCCc1cccc(Oc2ccccc2)c1)c1ccc2c(c1)OCO2 (stereo not drawn) [(14)] | > 90% | > 90% | 100% |  | 
C#CC(C)(CCCc1cccc(Oc2ccc(F)cc2)c1)c1ccc(OCC)cc1 (stereo not drawn) [(15)] | > 90% | > 90% | 100% | 3.6 µg/mL (≈ 8.94 µM) | 
C#CC(C)(CCCc1cccc(Oc2ccccc2)c1)c1ccc(OCC)c(Cl)c1 (stereo not drawn) [(16)] | 10 to 90% | > 90% | 100% | 15 µg/mL (≈ 35.8 µM) | 
C#CC(C)(CCCc1cccc(Oc2ccccc2)n1)c1ccc(OCC)cc1 (stereo not drawn) [(18), 3-(4-ethoxyphenyl)-3-methyl-6-(6-phenoxypyridin-2-yl)-l-hexyne] | > 90% | > 90% | 100% |  | Degree of damage [6]: - ~ +
C=CC(C)(CCCc1cccc(Oc2ccccc2)n1)c1ccc(OCC)cc1 (stereo not drawn) [(19)] | 10 to 90% | > 90% |  |  | 
C#CC(C)(CCCc1cccc(Sc2ccccc2)c1)c1ccc(OCC)cc1 (stereo not drawn) [(22)] | 10 to 90% | > 90% | 100% | 90 µg/mL (≈ 225 µM) | 
C#CC(C)(CCCc1cccc(Oc2ccccc2)c1)c1ccc(CC)cc1 (stereo not drawn) [(23)] | > 90% | > 90% | 100% | 40 µg/mL (≈ 109 µM) | 
C#CC(C)(CCCc1cccc(Oc2ccccc2)c1)c1ccc(OC)cc1 (stereo not drawn) [(24)] | 10 to 90% | > 90% | 100% | 27 µg/mL (≈ 72.9 µM) | 
C#CC(C)(CCCc1cccc(Oc2ccccc2)c1)c1ccc(Cl)cc1 (stereo not drawn) [(25)] | > 90% | > 90% | 100% | 61 µg/mL (≈ 163 µM) | 
C#CC(CC)(CCCc1cccc(Oc2ccccc2)c1)c1ccc(Cl)cc1 (stereo not drawn) [(26)] | > 90% | > 90% |  |  | 
C#CC(C)(CCCc1ccc(F)c(Oc2ccccc2)c1)c1ccc(OC(F)F)c(Cl)c1 (stereo not drawn) [(27)] | 10 to 90% | > 90% |  | 31 µg/mL (≈ 67.6 µM) | LC50 [5]: 11 µg/mL (≈ 24 µM)

Compound | mortality at 3.5 ppm [1, 7] | pest or weed control at 3.5 ppm [1, 8] | mortality at 150 ppm [2] | LC50 [3] | further results
C#CC(CCCc1cccc(Oc2ccccc2)c1)c1ccc(OCC)cc1 (stereo not drawn) [(28)] | > 90% | > 90% |  |  | 
C#CC(CC)(CCCc1ccc(F)c(Oc2ccccc2)c1)c1ccc(OCC)cc1 (stereo not drawn) [(29)] | > 90% | > 90% | 100% |  | 
C#CC(C)(CCCc1ccc(F)c(Cc2ccccc2)c1)c1ccc(OCC)cc1 (stereo not drawn) [(30)] | > 90% | > 90% | 100% | 28 µg/mL (≈ 69.9 µM) | 
C=CC(C)(CCCc1ccc(F)c(Nc2ccccc2)c1)c1ccc(OCC)cc1 (stereo not drawn) [(31)] | > 90% | > 90% | 100% |  | 
C#CC(CC)(CCCc1cccc(Oc2ccccc2)c1)c1ccc(OCC)cc1 (stereo not drawn) [(32)] | > 90% | > 90% |  |  | 
C#CC(C)(CCCc1ccc(F)c(Oc2ccc(C)cc2)c1)c1ccc(OCC)cc1 (stereo not drawn) [(33)] | > 90% | > 90% | 100% | 23 µg/mL (≈ 55.2 µM) | 
C#CC(C)(CCCc1cccc(Oc2ccccc2)c1)c1ccc(F)cc1 (stereo not drawn) [(35)] | > 90% | > 90% | 100% | 93 µg/mL (≈ 259 µM) | 
C#CC(C)(CCCc1ccc(F)c(Oc2ccccc2)c1)c1ccc(Cl)c(Cl)c1 (stereo not drawn) [(36)] | 10 to 90% | > 90% |  | 64 µg/mL (≈ 150 µM) | 
C#CC(C)(CCCc1ccc(F)c(Oc2ccccc2)c1)c1ccc(C(F)(F)F)cc1 (stereo not drawn) [(37)] |  |  |  |  | Mortality ([1]; 20 last instar larvae, after one day, 1440 min): A (90% or more); Inhibitory ratio of emergence [1, 8]: A (90% or more); Mortality (%) ([2]; 8640 min): 100%; LC50 [5]: 13 µg/mL (≈ 30.5 µM)
C#CC(C)(CCCc1ccc(F)c(Oc2ccc(F)cc2)c1)c1ccc(OCC)cc1 (stereo not drawn) [(38)] | > 90% | > 90% | 100% | 1.9 µg/mL (≈ 4.52 µM) | LC50 [5]: 14 µg/mL (≈ 33.3 µM)
C#CC(C)(CCCc1ccc(F)c(Oc2ccccc2)c1)c1ccc(OCC=C)c(Cl)c1 (stereo not drawn) [(40)] | 10 to 90% | > 90% |  | 46 µg/mL (≈ 102 µM) | 
C#CC(CC)(CCCc1ccc(F)c(Oc2ccccc2)c1)c1ccc(Cl)cc1 (stereo not drawn) [(41)] | > 90% | > 90% |  |  | 
C#CC(CCCC)(CCCc1ccc(F)c(Oc2ccccc2)c1)c1ccc(OCC)cc1 (stereo not drawn) [(42)] | 10 to 90% | > 90% | 100% |  | 
C#CC(C)(CCCc1cccc(Oc2ccccc2)n1)c1ccc(OC)cc1 (stereo not drawn) [(44), 3-(4-methoxyphenyl)-3-methyl-6-(6-phenoxy-pyridin-2-yl)-l-hexyne] | 10 to 90% | > 90% | 100% |  | 
CCC(C)c1ccccc1OC(=O)NC (stereo not drawn) [(C), BPMC, reference compound] |  |  |  | 190 µg/mL (≈ 917 µM) | mortality at 100 ppm [4, 9]: 6%; mortality at 100 ppm [4, 10]: 100%
Cc1cc(Cl)ccc1N=CN(C)C [(E), Chlordimeform, reference compound] |  |  |  |  | Degree of damage [6]: - ~ +

Reference: patent publication EP0193189A1, “Novel compound, its production and insecticidal and acaricidal composition containing it as an active ingredient” (SUMITOMO CHEMICAL COMPANY, LIMITED, priority 1985, dated 1986)
